According to patent US7147866B2, “UV-absorbing lipid vesicles” (Galaxy Surfactants Limited, priority 2004, dated 2006):

How the values were obtained:
[1] = test system: hairless skin of inner side of forearm; experiment: Photoprotection on human forearm skin exposed to midday sun; melanin content and erythema levels by Mexameter-18; format: in vivo; settings: liposomal vs non-vesicle aqueous suspension
Description: Liposomal dispersion composition (200 mg of 5.0% dispersion) of p-methoxy cinnamidopropyldimethylbehenyl ammonium tosylate and a cream preparation containing octyl methoxy cinnamate (200 mg of cream containing 5% OMC) are applied on hairless skin of inner side of forearm (36 cm^2). The forearms are exposed to midday sun for 15 minutes. The melanin content and erythema levels have been measured by Mexameter-18 (Courage+Khazakha, gmbh, Germany) before and after the exposure.

[2] = Molar extinction coefficient (UV absorption) in methanol; format: physicochemical; settings: at λmax 305 nm in methanol
[3] = Vesicle formation and stability of aqueous dispersion; format: physicochemical
Source text: However, this short duration of stability of aqueous suspension is sufficient for conducting the photoprotection experiment.

Structure (SMILES) | Photoprotection efficacy compared with p-methoxy cinnamidopropyl dimethyllauryl ammonium tosylate suspension [1] | Molar extinction coefficient, ε [2] | Stability of dispersion in water ([3]; aqueous suspension) | Vesicle formation ([3]; lipid by itself in water)
CCCCCCCCCCCCCCCCCCCCCC[N+](C)(C)CCCNC(=O)C=Cc1ccc(OC)cc1.Cc1ccc(S(=O)(=O)[O-])cc1 [p-methoxy cinnamidopropyldimethylbehenyl ammonium tosylate] | much more superior in protecting skin | 23,000 | – | –
CCCCCCCCCCCC[N+](C)(C)CCCNC(=O)C=Cc1ccc(OC)cc1.Cc1ccc(S(=O)(=O)[O-])cc1 [p-methoxy cinnamidopropyl dimethyllauryl ammonium tosylate] | – | – | unstable dispersion in water | does not form vesicles
CCCCCCCCCCCCCCCCCCCCCC[N+](C)(C)CCCNC(=O)c1ccc(N(C)C)cc1.Cc1ccc(S(=O)(=O)[O-])cc1 [p-N,N-dimethylamine benzamidopropyldimethylbehenyl ammonium tosylate] | – | 22,200 | – | –
